Measured values as given in patent US12290071B2, “Performic acid biofilm prevention for industrial CO2 scrubbers” (ECOLAB USA INC., priority 2016, dated 2025).

Experiments:
[1] = tested on: broad spectrum of microorganisms; conditions: background statement; cited from earlier work
[2] = tested on: Pseudomonas biofilm; assay: Pseudomonas biofilm on polycarbonate coupons, PFA compared with another peroxyacid; format: cell-based, Pseudomonas aeruginosa; conditions: 50 ppm PFA vs 200 ppm PAA, hard water pH 7.71, 3 hrs exposure
Procedure: Additional biocidal performance of performic acid was evaluated for log reduction of Pseudomonas aeruginosa in comparison to another peroxyacid. A Pseudomonas biofilm was treated with 50 ppm active of PFA and compared to efficacy treated with 200 ppm PAA. Pseudomonas biofilms were grown in a CDC biofilm reactor on a poly carbonate coupons. Appropriate concentration of the treatment substance were diluted in hard water at pH 7.71 diluent. Test chemicals were exposed for 3 hrs after which they were treated with 16 mLs of thiosulfate to neutralize any oxidants. The untreated control and treated Pseudomonas were plated on a TGE media and incubated at 35° C. for 48 hrs. A […] reduction was monitored by colony counting of Pseudomonas on plates.

[3] = tested on: P. aeruginosa ATCC 15442 biofilm; assay: Reduction of P. aeruginosa biofilm at different exposure times (ASTM E2562-12 / E2871-12); format: cell-based, Pseudomonas aeruginosa ATCC 15442; conditions: 50 ppm PFA for 15 min to 3 hours vs 200 ppm POAA for 3 hours
Procedure: Reduction of P. aeruginosa Biofilm Using Different Exposure Times of Peroxyformic Acid. P. aeruginosa ATCC 15442 biofilm was grown on the surface of 24 polycarbonate coupons following ASTM method E2562-12: Standard Test Method for Quantification of Pseudomonas aeruginosa Biofilm Grown with High Shear and Continuous Flow using CDC Biofilm Reactor. After 48 hours of biofilm establishment, the coupons were removed from the reactor and placed into individual centrifuge tubes. Three coupons per test condition were tested for disinfectant efficacy using ASTM method E2871-12: Standard Test Method for Evaluating Disinfectant Efficacy against Pseudomonas aeruginosa Biofilm Grown in CDC Biofilm Reactor using Single Tube Method. Sets of three coupons were exposed to 4 mL of 50 ppm PFA for exposure times of 15 minutes, 30 minutes, 1 hour, 2 hours and 3 hours, while coupons treated with 200 ppm POAA were exposed for 3 hours only. […] This was followed with a series of vortexing and sonicating steps to remove any biofilm from the coupon surface into the solution for plating and enumeration.

[4] = tested on: Pseudomonas aeruginosa ATCC 15442; assay: Biocidal performance of performic acid, log reduction in synthetic hard water; format: cell-based; conditions: 0.5, 1.0, 2.0 ppm PFA; 10 minutes and 4 hours contact; 25° C.
Procedure: Additional biocidal performance of performic acid was evaluated for log reduction of Pseudomonas aeruginosa as shown in Table 2.

[5] = tested on: biofilm fouling of CO2 scrubbers; assay: Field test of CO2 scrubbers in an ethanol fermentation plant; conditions: 30 minute treatment at 75-100 ppm PFA, ambient temperature, 80 gallons per minute
Procedure: Removal and/or prevention of biofilm fouling of CO2 scrubbers was tested with peroxyformic acid. Such scrubbers were evaluated in an ethanol fermentation plant which conventionally employs CIP cleaning process with hot caustic recirculated through the system every few weeks to clean any biofilm which has accumulated since the prior CIP cleaning cycle. This problem to be solved is the prevention of biofilm in the systems instead of removal of the biofilm after the same has been formed. The prevention of biofilm is more desirable than removal, as biofilm scuffs off and undesirably plugs lines within the system and in an fermentation facility the stream of reclaimed ethanol that goes back into the process may undesirably carry microbes from the biofilm. As a result, the use of performic acid was compared to the conventional CIP cleaning for efficacy. […]

With `CC(=O)OO` [Peracetic acid] as the compound, how does the “concentration at which it is a good biocide” value [1] read?
The value was “greater than 80 part per million”.

Which results are given for `O=COO` [peroxyformic acid]?
reduction in Pseudomonas aeruginosa compared with peracetic acid (in words) [2]: substantially increased reduction in Pseudomonas aeruginosa; anti-biofilm efficacy compared with POAA (in words) [3]: greater anti-biofilm efficacy with shorter exposure time and lower concentrations than POAA; biocidal efficacy (in words) [4]: beneficially efficacy; biofilm formation in CO2 scrubbers (in words) [5]: biofilm did not form
